This is an account of results in patent US11952351B2, “Lipid particle, composition comprising lipid particle, and method for delivering activators to cell” (KABUSHIKI KAISHA TOSHIBA, priority 2018, dated 2024).

Test [1] concerns human T-cell leukemia cell lines Jurkat. As to the kind of experiment: vector DNA introduced by liposomes of Table 3, NLuc enzyme activity, Jurkat. It counts as cell-based. To be noted: DOTAP as lipid forming a membrane; 0.8 μg DNA/well, 48 hours, FIG. 4. As for the experimental part: (§1) The amount of vector DNA introduced to cells by the liposomes was quantified on the basis of expression of NLuc genes on vector DNA. For evaluating the expression of NLuc, emission thereof was measured with a microtiter plate reader (infinite F200 [trademark], manufactured by Tecan). As the cells, human T-cell leukemia cell lines Jurkat (purchased from American Type Culture Collection) and human peripheral blood mononuclear cells PBMCs (purchased from LONZA Japan) were adopted. After 100 μL of the Jurkat cell suspension (1×10^6 cells/mL) and 100 μL of the PBMC cell suspension (5×10^6 cells/mL) were individually inoculated on a 96-well plate, 1 μL of each liposome solution shown in Table 1 was added so that the DNA amount might be 0.8 μg/well. Thereafter, the cells were incubated in an incubator at 37° C. for 48 hours under an atmosphere of 5% CO2, and then enzyme activity of NLuc was measured. The measurement of NLuc enzyme activity was carried out by use of NanoGlo Luciferase Assay System ([trademark], manufactured by Promega Corporation) with a luminometer according to the manual attached to the kit. The results are shown in FIG. 4 (Jurkat) and FIG. 5 (PBMC).

Test [2] deals with human peripheral blood mononuclear cells PBMCs. Put plainly: vector DNA introduced by liposomes of Table 3, NLuc enzyme activity, PBMC. It is filed as cell-based. To be noted: set of compound (2-01) and DOPE; 0.8 μg DNA/well, 48 hours, FIG. 5. As for the experimental part: as §1
In test [3] the test system is Jurkat, MCF-7 and Huh-7 cells. As to the kind of experiment: vector DNA introduced by liposomes of Table 7, NLuc enzyme activity. The following applies: MCF-7, Huh-7, Jurkat; 48 hours, FIGS. 7 to 11. It counts as cell-based, human. As for the experimental part:
The amount of vector DNA introduced to cells by the liposomes was quantified on the basis of expression of NLuc genes on vector DNA. For evaluating the expression of NLuc, emission thereof was measured with a microtiter plate reader (infinite F200 [trademark], manufactured by Tecan). As the cells, human T-cell leukemia cell lines Jurkat, human breast cancer cell lines MCF-7 and human liver cancer cell lines Huh-7 (purchased from American Type Culture Collection) were adopted. After 100 μL of the cell suspension (1×10^6 cells/mL) was inoculated on a 96-well plate, 1 μL of each liposome solution shown in Table 7 was added. Thereafter, the cells were incubated in an incubator at 37° C. for 48 hours under an atmosphere of 5% CO2, and then enzyme activity of NLuc was measured. The measurement of NLuc enzyme activity was carried out by use of NanoGlo Luciferase Assay System ([trademark], manufactured by Promega Corporation) with a luminometer according to the manual attached to the kit. FIGS. 7 to 9 show graphs in which Examples 4-1 and 4-2 are compared. […] FIGS. 10 and 11 show graphs in which Examples 4-2 and 4-3 are compared.

With `CCCCCC/C=C/COC(=O)CCCCCCCC(CCCCCCCC(=O)OC/C=C/CCCCCC)CCCCN1CCN(C)CC1` [compound (1-02)], the “efficiency of NLuc gene expression in Jurkat cells” value in test [1] is given as “higher efficiency of NLuc gene expression in Jurkat cells than the compound of the formula (1-01)”.
Regarding `CCCCCC/C=C/COC(=O)CCCCCCCC(CCCCCCCC(=O)OC/C=C/CCCCCC)CN(C)CCN(C)C` [compound (1-01)], the “efficiency of NLuc gene expression in PBMC cells” value in test [2] is given as “higher efficiency of NLuc gene expression in PBMC cells than the compound of the formula (1-02)”.
Take `CC1=C(/C=C/C(C)=C/C=C/C(C)=C/C(=O)OCCCN(C)CCOCCOCCN(C)CCCOC(=O)/C=C(C)/C=C/C=C(C)/C=C/C2=C(C)CCCC2(C)C)C(C)(C)CCC1` [compound (2-01)]: in test [3], the “expression efficiencies of NLuc genes (comparison in words)” value was “more easily introduced into adherent cells than into floating cells”.
